Assay [1] has as its target isolated recombinant JAK2 kinase domain (Homo sapiens (Human), UniProt O60674). As to conditions: read-out: JAK2 Ki.
In assay [2] the test system is JAK1-dependent STAT6 phosphorylation downstream of IL-13 stimulation in BEAS-2B human bronchial epithelial cells. The experiment in a line: cells. As to conditions: read-out: IL13-pSTAT6 BEASB2B IC50.
Assay [3] deals with JAK1-dependent STAT6 phosphorylation downstream of IL-13 stimulation in TF-1 human erythroleukemia cells. The experiment in a line: cells. As to conditions: TF-1, read-out: IL-13-pSTAT6 IC50.
[4] abbreviates: isolated recombinant JAK2 kinase domain, 25 μM ATP.

Where two headings read alike, the source gives them in different places.

Chain of isolated recombinant JAK2 kinase domain (O60674 849-1124): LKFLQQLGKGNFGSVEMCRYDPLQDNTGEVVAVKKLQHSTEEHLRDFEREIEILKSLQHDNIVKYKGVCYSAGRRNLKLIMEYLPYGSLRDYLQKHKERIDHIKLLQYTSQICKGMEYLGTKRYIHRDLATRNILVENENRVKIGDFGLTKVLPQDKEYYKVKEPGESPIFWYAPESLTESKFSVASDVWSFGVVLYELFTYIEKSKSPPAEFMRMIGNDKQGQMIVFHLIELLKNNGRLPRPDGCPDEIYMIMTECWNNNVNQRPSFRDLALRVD

Turning to `CN1CCC(N(C)C(=O)c2ccc(Nc3nc4c(N5CCC(O)(c6ccccc6)CC5)cccn4n3)cc2)CC1` [Example 1-43, 4-[[8-(4-hydroxy-4-phenyl-1-piperidyl)-[1,2,4]triazolo[1,5-a]pyridin-2-yl]amino]-N-methyl-N-(1-methyl-4-piperidyl)benzamide], the Ki in assay [1] (setting [4]) was 7.84 nM. Also, in assay [2], the IC50 stood at 968 nM.
In the case of `CO/N=C/C1(c2ccc(Cl)cc2)CCN(c2cccn3nc(Nc4ccc(C(=O)N(C)C5CCN(C)CC5)cc4)nc23)CC1` [Example 1-250], in assay [1] (setting [4]), the Ki was 1.29 nM. Also, the IC50 in assay [2] was determined as 732 nM.
With `CSc1ccc(C2(CO)CCN(c3cccn4nc(Nc5ccc(C(=O)N(C)C6CCN(C)CC6)cc5)nc34)CC2)cc1` [Example 1-251, 4-([8-[4-(hydroxymethyl)-4-[4-(methylsulfanyl)phenyl]piperidin-1-yl]-[1,2,4]triazolo[1,5-a]pyridin-2-yl]amino)-N-methyl-N-(1-methylpiperidin-4-yl)benzamide], the Ki in assay [1] came to 0.41 nM. Besides, the IC50 in assay [2] was found to be 56.6 nM.
For `CC(O)C1(c2ccc(Cl)cc2)CCN(c2cccn3nc(Nc4ccc(C(=O)N(C)C5CCN(C)CC5)cc4)nc23)CC1` (stereo not shown) [Example 1-252, 4-[[8-[4-(4-chlorophenyl)-4-(1-hydroxyethyl)-1-piperidyl]-[1,2,4]triazolo[1,5-a]pyridin-2-yl]amino]-N-methyl-N-(1-methyl-4-piperidyl)benzamide], the Ki in assay [1] (setting [4]) came to 0.5 nM. Moreover, the IC50 in assay [2] was 90.2 nM.
On the same counts, the results for `CN1CCC(N(C)C(=O)c2ccc(Nc3nc4c(N5CCC(CN)(c6ccc(Cl)cc6)CC5)cccn4n3)cc2)CC1` [Example 1-265, 4-([8-[4-(aminomethyl)-4-(4-chlorophenyl)piperidin-1-yl]-[1,2,4]triazolo[1,5-a]-pyridin-2-yl]amino)-N-methyl-N-(1-methylpiperidin-4-yl)benzamide] are 0.57 nM and 94.8 nM.
With `CN1CCC(N(C)C(=O)c2ccc(Nc3nc4c(N5CCC(CO)(c6ccc(C(F)F)cc6)CC5)cccn4n3)cc2)CC1` [Example 1-267, 4-[(8-[4-[4-(difluoromethyl)phenyl]-4-(hydroxymethyl)piperidin-1-yl]-[1,2,4]triazolo[1,5-a]pyridin-2-yl)amino]-N-methyl-N-(1-methylpiperidin-4-yl)benzamide], the Ki in assay [1] was determined as 0.25 nM. In assay [2], the IC50 amounted to 32.4 nM.
For `CC(=O)NCC1(c2ccc(Cl)cc2)CCN(c2cccn3nc(Nc4ccc(C(=O)N(C)C5CCN(C)CC5)cc4)nc23)CC1` [Example 1-268, 4-([8-[4-(4-chlorophenyl)-4-(acetamidomethyl)piperidin-1-yl]-[1,2,4]triazolo[1,5-a]pyridin-2-yl]amino)-N-methyl-N-(1-methylpiperidin-4-yl)benzamide], the Ki in assay [1] (setting [4]) stood at 0.38 nM. Moreover, the IC50 in assay [2] came to 56.2 nM.
As to `CN1CCCC12CN(C(=O)c1ccc(Nc3nc4c(C5=CCN(C(=O)CCC(F)(F)F)CC5)cccn4n3)cc1)C2` [Example 2-40, 4,4,4-trifluoro-1-[4-[2-[4-(5-methyl-2,5-diazaspiro[3.4]octane-2-carbonyl)anilino]-[1,2,4]triazolo[1,5-a]pyridin-8-yl]-3,6-dihydro-2H-pyridin-1-yl]butan-1-one], the IC50 came to 3.5 nM in assay [3] and 18.7 nM in assay [2].
`O=C(NC1CCN(C2CCCC2)CC1)c1ccc(Nc2nc3c(C4=CCN(C(=O)CCC(F)(F)F)CC4)cccn3n2)cc1` [Example 2-49, N-(1-cyclopentyl-4-piperidyl)-4-[[8-[1-(4,4,4-trifluorobutanoyl)-3,6-dihydro-2H-pyridin-4-yl]-[1,2,4]triazolo[1,5-a]pyridin-2-yl]amino]benzamide]: the IC50 is 3.8 nM in assay [3] and 10.2 nM in assay [2].
For `CCOC(=O)N1CC=C(c2cccn3nc(Nc4ccc(C(=O)NCCCN5CCOCC5)cc4)nc23)CC1` [Example 2-56, ethyl 4-[2-[4-(3-morpholinopropylcarbamoyl)anilino]-[1,2,4]triazolo[1,5-a]pyridin-8-yl]-3,6-dihydro-2H-pyridine-1-carboxylate] the same measures were 6.7 nM and 59.4 nM.
On to `CC1CCCN(CCNC(=O)c2ccc(Nc3nc4c(C5=CCN(C(=O)CCC(F)(F)F)CC5)cccn4n3)cc2)C1` (stereo not shown) [Example 2-101, N-[2-(3-methyl-1-piperidyl)ethyl]-4-[[8-[1-(4,4,4-trifluorobutanoyl)-3,6-dihydro-2H-pyridin-4-yl]-[1,2,4]triazolo[1,5-a]pyridin-2-yl]amino]benzamide], for which the IC50 in assay [3] was 3.5 nM; in assay [2] it was 31.8 nM.
For `Cc1ccc(CNC(=O)c2ccc(Nc3nc4c(C5=CCN(C(=O)CCC(F)(F)F)CC5)cccn4n3)cc2)cn1` [Example 2-148, N-[(6-methyl-3-pyridyl)methyl]-4-[[8-[1-(4,4,4-trifluorobutanoyl)-3,6-dihydro-2H-pyridin-4-yl]-[1,2,4]triazolo[1,5-a]pyridin-2-yl]amino]benzamide] the same measures were 3.2 nM and 15 nM.
Regarding `O=C(CCC(F)(F)F)N1CC=C(c2cccn3nc(Nc4ccc(C(=O)N5CCOC(c6ccccn6)C5)cc4)nc23)CC1` (stereo not shown) [Example 2-154, 4,4,4-trifluoro-1-[4-[2-[4-[2-(2-pyridyl)morpholine-4-carbonyl]anilino]-[1,2,4]triazolo[1,5-a]pyridin-8-yl]-3,6-dihydro-2H-pyridin-1-yl]butan-1-one], the IC50 is 4.5 nM in assay [3] and 80.6 nM in assay [2].
For the compound `O=C(CCC(F)(F)F)N1CC=C(c2cccn3nc(Nc4ccc(C(=O)N5CCC(N6CCOCC6)CC5)cc4)nc23)CC1` [Example 2-210, 4,4,4-trifluoro-1-[4-[2-[4-(4-morpholinopiperidine-1-carbonyl)anilino]-[1,2,4]triazolo[1,5-a]pyridin-8-yl]-3,6-dihydro-2H-pyridin-1-yl]butan-1-one], the IC50 in assay [3] amounted to 6.9 nM; in assay [2] it was 45.6 nM.
Turning to `CC(C)(CNC(=O)c1ccc(Nc2nc3c(C4=CCN(C(=O)CCC(F)(F)F)CC4)cccn3n2)cc1)N1CCOCC1` [Example 2-213, N-(2-methyl-2-morpholino-propyl)-4-[[8-[1-(4,4,4-trifluorobutanoyl)-3,6-dihydro-2H-pyridin-4-yl]-[1,2,4]triazolo[1,5-a]pyridin-2-yl]amino]benzamide], the half-maximal inhibitory concentration (IC50) was 5.6 nM in assay [3] and 20.6 nM in assay [2].
On to `CCN(Cc1ccncc1)C(=O)c1ccc(Nc2nc3c(C4=CCN(C(=O)CCC(F)(F)F)CC4)cccn3n2)cc1` [Example 2-219, N-ethyl-N-(4-pyridylmethyl)-4-[[8-[1-(4,4,4-trifluorobutanoyl)-3,6-dihydro-2H-pyridin-4-yl]-[1,2,4]triazolo[1,5-a]pyridin-2-yl]amino]benzamide], for which the IC50 in assay [3] came to 3.3 nM; in assay [2] it was 37.2 nM.
For `CC1CN(CCNC(=O)c2ccc(Nc3nc4c(C5=CCN(C(=O)CCC(F)(F)F)CC5)cccn4n3)cc2)CC(C)O1` (stereo not shown) [Example 2-268, N-[2-(2,6-dimethylmorpholin-4-yl)ethyl]-4-[[8-[1-(4,4,4-trifluorobutanoyl)-3,6-dihydro-2H-pyridin-4-yl]-[1,2,4]triazolo[1,5-a]pyridin-2-yl]amino]benzamide] the same measures were 3 nM and 26.6 nM.
On the same counts, the results for `O=C(NCCCN1CCOCC1)c1ccc(Nc2nc3c(C4=CCN(C(=O)CCC(F)(F)F)CC4)cccn3n2)cc1` [Example 2-271, N-(3-morpholinopropyl)-4-[[8-[1-(4,4,4-trifluorobutanoyl)-3,6-dihydro-2H-pyridin-4-yl]-[1,2,4]triazolo[1,5-a]pyridin-2-yl]amino]benzamide] are 5.3 nM and 15.9 nM.
For `O=C(CCC(F)(F)F)N1CC=C(c2cccn3nc(Nc4ccc(C(=O)N(Cc5ccccn5)C5CC5)cc4)nc23)CC1` [Example 2-272, N-cyclopropyl-N-(2-pyridylmethyl)-4-[[8-[1-(4,4,4-trifluorobutanoyl)-3,6-dihydro-2H-pyridin-4-yl]-[1,2,4]triazolo[1,5-a]pyridin-2-yl]amino]benzamide] the same measures were 3.9 nM and 106 nM.
For the compound `CN1CCC(N(C)C(=O)c2ccc(Nc3nc4c(C5=CCN(C(=O)CCC(F)(F)F)CC5)cccn4n3)cc2)CC1` [Example 2-288, N-methyl-N-(1-methyl-4-piperidyl)-4-[[8-[1-(4,4,4-trifluorobutanoyl)-3,6-dihydro-2H-pyridin-4-yl]-[1,2,4]triazolo[1,5-a]pyridin-2-yl]amino]benzamide], the IC50 amounted to 12.7 nM in assay [3] and 77.7 nM in assay [2].
For `CC(CN1CCCCC1)NC(=O)c1ccc(Nc2nc3c(C4=CCN(C(=O)CCC(F)(F)F)CC4)cccn3n2)cc1` (stereo not shown) [Example 2-334, N-[1-methyl-2-(1-piperidyl)ethyl]-4-[[8-[1-(4,4,4-trifluorobutanoyl)-3,6-dihydro-2H-pyridin-4-yl]-[1,2,4]triazolo[1,5-a]pyridin-2-yl]amino]benzamide] the same measures were 4.3 nM and 30.7 nM.
On the same counts, the results for `O=C(CCC(F)(F)F)N1CC=C(c2cccn3nc(Nc4ccc(C(=O)N5CCC(c6ccncc6)C5)cc4)nc23)CC1` (stereo not shown) [Example 2-338, 4,4,4-trifluoro-1-[4-[2-[4-[3-(4-pyridyl)pyrrolidine-1-carbonyl]anilino]-[1,2,4]triazolo[1,5-a]pyridin-8-yl]-3,6-dihydro-2H-pyridin-1-yl]butan-1-one] are 3.3 nM and 23.4 nM.
For `O=C(NCCc1ccncc1)c1ccc(Nc2nc3c(C4=CCN(C(=O)CCC(F)(F)F)CC4)cccn3n2)cc1` [Example 2-343, N-[2-(4-pyridyl)ethyl]-4-[[8-[1-(4,4,4-trifluorobutanoyl)-3,6-dihydro-2H-pyridin-4-yl]-[1,2,4]triazolo[1,5-a]pyridin-2-yl]amino]benzamide] the same measures were 4.6 nM and 38.3 nM.

As a reminder, the Ki is the equilibrium dissociation constant of an inhibitor or competing ligand from its target. What is called IC50 is the concentration at which inhibition is half-maximal.
